Experimental data published in patent publication US11008292B2, “FGFR4 inhibitor and preparation method and use thereof” (GUANGDONG ZHONGSHENG PHARMACEUTICAL CO., LTD, priority 2016, dated 2021).
Read-outs that look alike come from different tables or passages of the source.

Experiments:
FGFR1 protein kinase = molecular target: T1, FGFR1 protein kinase (Homo sapiens, UniProt P11362); assay: In vitro enzyme activity test, Z′-LYTE Assay, FGFR1 enzymatic reaction; format: biochemical; conditions: Z′-LYTE detection; 25 μM ATP
T1 construct: purchased Life technology
T1 sequence (P11362 22-822): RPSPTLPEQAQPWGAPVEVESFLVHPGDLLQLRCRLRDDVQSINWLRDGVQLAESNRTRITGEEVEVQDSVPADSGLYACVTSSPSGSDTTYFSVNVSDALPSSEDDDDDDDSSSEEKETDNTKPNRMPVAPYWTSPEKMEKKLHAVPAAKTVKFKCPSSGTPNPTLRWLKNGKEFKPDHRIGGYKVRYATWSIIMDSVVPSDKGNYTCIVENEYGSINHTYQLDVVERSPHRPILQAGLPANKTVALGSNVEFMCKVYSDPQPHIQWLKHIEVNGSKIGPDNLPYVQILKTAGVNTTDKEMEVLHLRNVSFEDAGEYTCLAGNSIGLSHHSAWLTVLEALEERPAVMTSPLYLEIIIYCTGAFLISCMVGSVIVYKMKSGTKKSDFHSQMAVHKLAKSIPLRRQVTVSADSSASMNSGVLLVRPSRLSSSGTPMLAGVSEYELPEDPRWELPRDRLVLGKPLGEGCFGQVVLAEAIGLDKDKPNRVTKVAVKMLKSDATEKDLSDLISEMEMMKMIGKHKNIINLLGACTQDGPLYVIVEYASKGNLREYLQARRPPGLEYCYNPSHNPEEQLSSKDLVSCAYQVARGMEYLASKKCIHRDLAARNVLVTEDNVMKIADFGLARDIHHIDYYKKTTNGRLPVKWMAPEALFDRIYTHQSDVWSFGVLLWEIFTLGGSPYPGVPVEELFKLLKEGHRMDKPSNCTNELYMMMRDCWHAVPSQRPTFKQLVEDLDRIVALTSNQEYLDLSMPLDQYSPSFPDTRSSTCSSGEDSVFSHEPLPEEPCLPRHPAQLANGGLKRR
Protocol: (§1) The inhibitory effects of the compounds on FGFR4 kinases were assessed by detecting the enzymatic activities through Z′-LYTE® Assay, with the IC50 value of the compound as the indicator. This activity test was performed by Life technology.
(§2) The test compounds were diluted in a concentration gradient of 3-times, the final concentrations were 10 concentrations ranging from 10 μM to 0.5 nM, with double hole for each concentration; the content of DMSO in the detection reaction was 1%.
FGFR1 Enzymatic Reaction:
1 nM FGFR1 protein kinase, 2 μM Tyr4 peptide, 25 μM ATP, 50 mM HEPES (pH 7.5), 10 mM MgCl2, 1 mM EGTA, 0.01% BRIJ-35, 2 mM MnCl2, 1 mM DTT. The detection plate was Black Proxiplate 384-Plus plate (PerkinElmer), reaction conducted at room temperature for 60 minutes, and the reaction system was 10μμL.
(§3) To the kinase reaction solution was added 5 μL Development reagent B (1:64) to stop the reaction and incubated at 23° C. for 60 minutes, reading the plate with Envision instrument.
(§4) Data was transformed into the phosphorylation rate and the inhibitory rate by curve fitting with Model 205 in XLFIT (iDBS) to obtain the IC50 data of the compounds. It was set as 0% if the bottom of the curve was not in the range of −20% to 20%; otherwise it was set as 100% if the top of the curve was not in the range of 70% to 130%.

FGFR4 kinases = molecular target: T2, FGFR4 kinases (Homo sapiens, UniProt P22455); assay: In vitro enzyme activity test, Z′-LYTE Assay, FGFR4 enzymatic reaction; format: biochemical; conditions: for IC50: Z′-LYTE detection, 150 μM ATP
T2 construct: purchased Life technology
T2 sequence (P22455 22-802): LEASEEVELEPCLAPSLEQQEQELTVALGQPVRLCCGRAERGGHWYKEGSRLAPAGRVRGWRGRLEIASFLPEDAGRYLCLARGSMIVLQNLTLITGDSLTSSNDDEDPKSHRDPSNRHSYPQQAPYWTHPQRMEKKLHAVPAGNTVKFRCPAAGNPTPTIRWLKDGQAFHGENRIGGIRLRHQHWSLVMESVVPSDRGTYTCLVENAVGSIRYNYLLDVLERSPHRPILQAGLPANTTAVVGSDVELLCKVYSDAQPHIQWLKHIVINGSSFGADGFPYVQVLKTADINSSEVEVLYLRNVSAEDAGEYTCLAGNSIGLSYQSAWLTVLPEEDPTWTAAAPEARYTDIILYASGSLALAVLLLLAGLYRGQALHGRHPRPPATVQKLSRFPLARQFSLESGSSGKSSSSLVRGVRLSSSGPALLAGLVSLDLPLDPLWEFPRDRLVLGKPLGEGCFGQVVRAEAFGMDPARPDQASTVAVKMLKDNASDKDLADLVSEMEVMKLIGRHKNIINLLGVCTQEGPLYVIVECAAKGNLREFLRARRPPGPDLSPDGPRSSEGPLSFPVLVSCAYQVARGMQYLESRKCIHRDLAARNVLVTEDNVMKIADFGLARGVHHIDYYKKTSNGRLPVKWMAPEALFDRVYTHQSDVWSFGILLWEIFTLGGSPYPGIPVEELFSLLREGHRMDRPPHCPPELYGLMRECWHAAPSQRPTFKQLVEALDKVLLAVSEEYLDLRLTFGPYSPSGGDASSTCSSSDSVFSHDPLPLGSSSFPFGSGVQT
Protocol: as §1, §2
FGFR4 Enzymatic Reaction:
[…] The detection plate was Bar-coded Corning, low volume NBS, black 384-well plate, reaction conducted at room temperature for 60 minutes, and the reaction system was 10μμL.
as §3, §4

[1] = Pharmacokinetic evaluation in mice (IV and oral gavage); format: in vivo, female Balb/c nude mice; conditions: for F (bioavailability; oral absorption ratio): PO gavage 10 mg/kg vs IV 2 mg/kg; for clearance: read-out: Cl (plasma clearance); for half-life: read-out: T1/2 (elimination half-life) (converted); for Vd: read-out: Vdss (steady-state apparent volume of distribution); for Cmax: read-out: Cmax (peak concentration); for Tmax: read-out: Tmax (time to peak)
Protocol: […] The test compound suspended in the corresponding solvent at 1 mg/ml was administered by gavage to female Balb/c nude mice (fasted overnight, at an age of 7-9 weeks), with a dosage of 10 mg/kg. Two groups of animals were both blood sampled about 30 μL from jugular vein or tail vein at 0.0833, 0.25, 0.5, 1.0, 2.0, 4.0, 6.0, 8.0 and 24 h post-administration, which was placed into an anticoagulant tube charged with EDTA-K2, and plasma was separated by centrifugation. Plasma concentrations were determined by LC-MS/MS process using WinNonlin™ Version 6.3 (Pharsight, Mountain View, Calif.) pharmacokinetic software, calculating the related pharmacokinetic parameters with a linear logarithmic trapezoidal method for […] models.

[2] = test system: Hep3B Transplantation Models; assay: Tumor growth inhibition (TGI), antitumor activity test of mice in vivo; conditions: 30 mg/kg BID, Hep3B transplantation model
Protocol: The evolutionary growth potential of a tumor was assessed by the relationship between the volume of the tumor and time. The long axis (L) and short axis (W) of a subcutaneous tumor were determined by a caliper twice a week, the tumor volume (TV) was calculated by the formula of ((L×W^2)/2). TGI was calculated by the difference value between the median of tumor volumes of mice in the solvent group and the median of tumor volumes of mice in the drug group, and represented by the percentage accounting for the median of tumor volumes in the solvent control group,
Calculated by the following formula: % TGI=((the median of tumor volume (control group)−the median of tumor volume (dosing group))/the median of tumor volume (control group))×100%
The original statistical analysis was completed by the analysis of repeated variance determination. Subsequently, multiple comparisons were performed by a Scheffe psot hoc experimental method. Single solvent (0.5% methylcellulose+1% aqueous solution of Tween) was the negative control.

[3] = mouse, plasma, IV tail vein 2 mg/kg, female Balb/c nude mice
[4] = mouse, plasma, PO gavage 10 mg/kg, female Balb/c nude mice
[5] = mouse, plasma, IV tail vein 0.2 mg/kg, female Balb/c nude mice

SMILES	IC50 (FGFR1 protein kinase) [nM]	IC50 (FGFR4 kinases) [nM]	further results
C=CC(=O)Nc1cccc(F)c1Nc1ccc(/C=C(\F)c2c(Cl)c(OC)cc(OC)c2Cl)cn1 [Example 18]	1900	105	
C=CC(=O)Nc1cccc(C)c1Nc1ncc(OCc2c(Cl)c(OC)cc(OC)c2Cl)cn1 [Control example 5]			F (bioavailability; oral absorption ratio) ([1]; female Balb/c nude mice): 0%; AUC(0-t) [1, 3]: 0.528 µM·h; clearance [1, 3]: 127 mL/min/kg; half-life [1, 3]: 13.3 min; Vd [1, 3]: 1.28 L/kg
C=CC(=O)Nc1cccc(C)c1Nc1ccc(/C=C(\F)c2c(Cl)c(OC)cc(OC)c2Cl)cn1 [Example 7]	> 10000	31	TGI % (dosing on Day 21 for the last time) [2]: 108%
C=CC(=O)Nc1cc(N2CCN(C(C)=O)CC2)cc(C)c1Nc1ncc(/C=C(\F)c2c(Cl)c(OC)cc(OC)c2Cl)cn1 [Example 26]		13	
C=CC(=O)Nc1cccc(C)c1Nc1ccc(/C(F)=C(\C)c2c(Cl)c(OC)cc(OC)c2Cl)cn1 [Example 10]		544	
C=CC(=O)Nc1cccc(C)c1Nc1ccc(/C(F)=C/c2cc(OC)cc(OC)c2)cn1 [Control example 1, reference compound]	> 10000	8060	
C=CC(=O)Nc1cccc(C)c1Nc1cnc(/C(F)=C/c2c(Cl)c(OC)cc(OC)c2Cl)cn1 [Example 5]		203	
C=CC(=O)Nc1ccc(OC)c(C)c1Nc1ncc(/C=C(\F)c2c(Cl)c(OC)cc(OC)c2Cl)cn1 [Example 35]	174	23	
C=CC(=O)Nc1cc(N2CCN(CC)CC2)cc(C)c1Nc1ncc(/C=C/c2c(Cl)c(OC)cc(OC)c2Cl)cn1 [Control example 2, reference compound]	2970	14	
C=CC(=O)Nc1cc(N2CCN(CC)CC2)cc(C)c1Nc1ncc(/C=C(\F)c2c(Cl)c(OC)cc(OC)c2Cl)cn1 [Example 15]	813	1.58	FGFR4 inhibitory activity enhancement vs control example (FGFR4 kinases; ratio to control example 2): ~9 times
C=CC(=O)Nc1cccc(F)c1Nc1ccc(/C(F)=C/c2c(Cl)c(OC)cc(OC)c2Cl)cn1 [Example 6]	> 10000	124	
C=CC(=O)Nc1cc(F)cc(C)c1Nc1ncc(/C=C(\F)c2c(Cl)c(OC)cc(OC)c2Cl)cn1 [Example 30]		238	
C=CC(=O)Nc1cccc(C)c1Nc1ncc(/C(F)=C/c2c(Cl)c(OC)cc(OC)c2Cl)cn1 [Example 2]	> 10000	84	
C=CC(=O)Nc1cccc(C)c1Nc1ncc(OCc2c(F)c(OC)cc(OC)c2F)cn1 [Control example 6]			F (bioavailability; oral absorption ratio) ([1]; female Balb/c nude mice): 0%; AUC(0-t) [1, 3]: 0.388 µM·h; clearance [1, 3]: 186 mL/min/kg; half-life [1, 3]: 14.1 min; Vd [1, 3]: 2.44 L/kg
C=CC(=O)N[C@H]1CCOC[C@H]1Nc1ncc(OCc2c(F)c(OC)cc(OC)c2F)cn1 [Control example 4]			F (bioavailability; oral absorption ratio) ([1]; female Balb/c nude mice): 0%; AUC(0-t) [1, 3]: 0.958 µM·h; clearance [1, 3]: 77.1 mL/min/kg; half-life [1, 3]: 6.84 min; Vd [1, 3]: 0.533 L/kg
C=CC(=O)Nc1ccc(N2CCN(CC)CC2)c(C)c1Nc1ncc(/C=C(\F)c2c(Cl)c(OC)cc(OC)c2Cl)cn1 [Example 13]	613	30.1	
C=CC(=O)Nc1cccc(C)c1Nc1ccc(/C(F)=C/c2c(Cl)c(OC)cc(OC)c2Cl)cn1 [Example 1]	> 10000	112	FGFR4 inhibitory activity enhanced compared with the control example 1 (FGFR4 kinases; ratio to control example 1): 70 times

SMILES	IC50 (FGFR1 protein kinase) [nM]	IC50 (FGFR4 kinases) [nM]	further results
C=CC(=O)Nc1ccc(OCCN2CCN(C)CC2)c(C)c1Nc1ncc(/C=C(\F)c2c(Cl)c(OC)cc(OC)c2Cl)cn1 [Example 14]	182	17.7	
C=CC(=O)Nc1cc(N2CCN(CC)CC2)cc(C)c1Nc1ncc(/C(F)=C/c2c(Cl)c(OC)cc(OC)c2Cl)cn1 [Example 11]	4980	20.1	
C=CC(=O)N[C@H]1COC[C@H]1Nc1ncc(/C=C/c2c(Cl)c(OC)cc(OC)c2Cl)cn1 [Control example 3, reference compound]		408	
C=CC(=O)N[C@@H]1COC[C@@H]1Nc1ncc(/C(F)=C/c2c(Cl)c(OC)cc(OC)c2Cl)cn1 [Example 32]		361	
C=CC(=O)Nc1cccc(C)c1Nc1ncc(/C=C(\F)c2c(Cl)c(OC)cc(OC)c2Cl)cn1 [Example 24]	2100	10	stability enhanced (plasma clearance) compared with the control example 5 ([1]; IV, mice, ratio to control example 5): 2 times; stability enhanced (plasma clearance) compared with the control example 6 ([1]; IV, mice, ratio to control example 6): more than 3 times; F (bioavailability; oral absorption ratio) ([1]; female Balb/c nude mice): 14.8%; AUC(0-t) [1, 3]: 1.32 µM·h; clearance [1, 3]: 50 mL/min/kg; half-life [1, 3]: 32.9 min; Vd [1, 3]: 1.82 L/kg; AUC(0-t) [1, 4]: 0.962 µM·h; Cmax [1, 4]: 282 nM; Tmax [1, 4]: 30 min
C=CC(=O)NC1CN(C(C)=O)CC1Nc1ncc(/C=C(\F)c2c(Cl)c(OC)cc(OC)c2Cl)cn1 (stereo not shown) [Example 34]		199	
C=CC(=O)N[C@H]1COC[C@H]1Nc1ncc(OCc2c(Cl)c(OC)cc(OC)c2Cl)cn1 [Control example 8]			F (bioavailability; oral absorption ratio) ([1]; female Balb/c nude mice): 12.3%; AUC(0-t) [1, 3]: 1.8 µM·h; clearance [1, 3]: 39.7 mL/min/kg; half-life [1, 3]: 9.24 min; Vd [1, 3]: 0.407 L/kg; AUC(0-t) [1, 4]: 1.1 µM·h; Cmax [1, 4]: 2710 nM; Tmax [1, 4]: 15 min
C=CC(=O)Nc1cccc(Cl)c1Nc1ccc(/C=C(\F)c2c(Cl)c(OC)cc(OC)c2Cl)cn1 [Example 23]		387	
C=CC(=O)N[C@@H]1CCC[C@@H]1Nc1ncc(/C=C(\F)c2c(Cl)c(OC)cc(OC)c2Cl)cn1 [Example 25]	355	476	
C=CC(=O)Nc1cc(Cl)cc(F)c1Nc1ccc(/C=C(\F)c2c(Cl)c(OC)cc(OC)c2Cl)cn1 [Example 28]	3210	263	
C=CC(=O)Nc1cc(F)c(F)cc1Nc1ccc(/C=C(\F)c2c(Cl)c(OC)cc(OC)c2Cl)cn1 [Example 22]		575	
C=CC(=O)N[C@H]1COC[C@H]1Nc1ncc(/C=C(\F)c2c(Cl)c(OC)cc(OC)c2Cl)cn1 [Example 19]	3100	47	FGFR4 inhibitory activity enhancement vs control example (FGFR4 kinases; ratio to control example 3): ~9 times
C=CC(=O)N[C@H]1COC[C@H]1Nc1ncc(OCc2c(F)c(OC)cc(OC)c2F)cn1 [Control example 7]			Cl (plasma clearance) ([1]; IV tail vein 0.2 mg/kg, female Balb/c nude mice): 65 mL/min/kg; AUC(0-t) [1, 5]: 0.113 µM·h; half-life [1, 5]: 6.54 min; Vd [1, 5]: 0.581 L/kg; bioavailability ([1]; mouse, plasma, PO gavage 1.0 mg/kg vs IV 0.2 mg/kg, female Balb/c nude mice, read-out: F (bioavailability)): 0%
C=CC(=O)Nc1cc(N2CCN(CC)CC2)c(OC)cc1Nc1ncc(/C=C(\F)c2c(Cl)c(OC)cc(OC)c2Cl)cn1 [Example 12]	25.8	10.9	
C=CC(=O)Nc1ccc(Cl)c(C)c1Nc1ccc(/C=C(\F)c2c(Cl)c(OC)cc(OC)c2Cl)cn1 [Example 31]	> 10000	560	
C=CC(=O)Nc1cc(F)cc(C)c1Nc1ccc(/C=C(\F)c2c(Cl)c(OC)cc(OC)c2Cl)cn1 [Example 29]		268	
